These are literature values, as cited in patent US20080089854A1, “Skin care compositions” (priority 2006, published 2008).

For data set [1] the following is noted: animal studies.
The conditions of data set [2]: topical application.

As to `O=C(O)CCCCCCCC(=O)O` [azelaic acid], in data set [1], the “adverse effects on fertility or reproduction” value is listed as “no adverse effects”. For the same molecule, in data set [2], the “share of topically applied azelaic acid that is absorbed” value was “about 3.6%”.
